Test results: PubChem BioAssay AID1963849 (Molecular Pharmacology Branch, DTP, NCI, 2024)

Test system: 299254-011-R-J1-PDC complex spheroid viability
Assay: Anticancer human tumor 299254-011-R-J1-PDC patient-derived melanoma cell line growth inhibition [POLQ]
Settings: for IC50: curve of first compound; for viability, T/C: stronger effect = lower value
Procedure: Multicellular complex tumor spheroid response to Polymerase (POL) inhibitors (novobiocin, ART-558, RP6685) in combination with a variety of drugs and investigational agents in selected tumor cell lines
The POL inhibitors (novobiocin, ART-558, and RP6685) were evaluated both individually and in combination with standard of care and investigational anticancer small molecules within a complex spheroid model of solid tumors. . Complex spheroids include a stromal component modeled by human endothelial cells (HUVEC) and fibroblasts modeled by human mesenchymal stem cells (MSCs). The concentration ranges selected for each drug and investigational agent were based upon clinically achievable concentrations if the clinical Cmax of the agent was known.
Compounds. The drugs and investigational agents: novobiocin (NSC847541), ART-558 (NSC835418), RP-6685 (NSC848927), peposertib (NSC802822), ceralasertib (NSC780249), elimusertib (NSC800525), camonsertib (NSC841442), AZD-1390 (NSC803789), olaparib (NSC753686), talazoparib (NSC767125), rucaparib (NSC756644), sotorasib (NSC818433), MRTX-1133 (NSC836407), SN-38 (NSC673596), topotecan (NSC609699), epotoside (NSC141540), doxorubicin (NSC123127), gemcitabine (NSC613327), 5-fluorouracil (NSC19893), paclitaxel (NSC125973), vemurafenib (NSC761431), MSA-2 (NSC828583), SN-011 (NSC837082), adavosertib (NSC754352), prexasertib (NSC758257), carboplatin (NSC241240) and oxaliplatin (NSC266046), were obtained from the National Cancer Institute (NCI) Developmental Therapeutics Program Chemical Repository (21). The FDA-approved anticancer drug set is available from the Developmental Therapeutics Program at https://dtp.cancer.gov/organization/dscb/obtaining/. […] The stock solutions were prepared in dimethyl sulfoxide (DMSO, Sigma-Aldrich, St. Louis, MO, cat. D2650), except for the platinum compounds which were prepared in saline (Quality Biological, Gaithersburg, MD, cat. 114-055-101), at 800-fold the tested concentration and stored at -70 degrees C prior to their use. All drugs and investigational agents were tested over a range starting from a high concentration at or near the clinical Cmax and decreasing in half-log increments. If the clinical Cmax for an agent had not been determined, the highest concentration tested was 10 microM, except for SN-38, which was tested at a high concentration of 1 microM.
Cell Culture. All cells were maintained in an incubator at 37 degrees C and 5% CO2 with 95% humidity. The PDC lines were cultured according to standard operating procedures established by the NCI PDMR (https://pdmr.cancer.gov). Table 3 of the manuscript, lists the cell lines along with the number of the three cell types plated to form the mct-spheroids and media for tumor cell growth. After thawing, all PDC lines, except 997537-175-T-J1-PDC and 415267-285-R-J2-PDC, were cultured in Matrigel-coated flasks prepared with a working solution of 1X Ham's F-12 nutrient mix, without supplementation (Thermo Fisher Scientific, cat. 11765054), 100 U/mL penicillin-streptomycin (Thermo Fisher Scientific, cat. 15140122), and 2.5% Matrigel (Corning Inc., Corning, NY, cat. 354248) for the first three passages. The two PDC lines 997537-175-T-J1-PDC and 415267-285-R-J2-PDC were cultured on uncoated flasks. The 857933-349-R-J2-PDC line was cultured in 6C/Colon 1B media containing advanced DMEM/F-12 (Thermo Fisher Scientific, cat. 12634028), 10 mM HEPES (Thermo Fisher Scientific, cat. 15630080), 1X GlutaMAX supplement (Thermo Fisher Scientific, cat. 35050061), 0.1 mg/mL primocin (InvivoGen, San Diego, CA, cat. ant-pm-2), 10% defined fetal bovine serum, heat inactivated (HyClone Laboratories Inc., Logan, UT, cat. SH30070.03HI), 50% L-WRN conditioned media (ATCC, cat. CRL-3276), 1.25 mM N-Acetyl-L-cysteine (Sigma-Aldrich, cat. A9165), 10 mM nicotinamide (Sigma-Aldrich, cat. N0636), 1X B-27 supplement (Thermo Fisher Scientific, cat. 17504044), 1X N-2 supplement (Thermo Fisher Scientific, cat. […]
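Note: spheroids exposed to drugs for one week before measurement.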
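Throughout, for viability, T/C: percent viability relative to DMSO vehicle control taken as 100%.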

`C=CCn1c(=O)c2cnc(Nc3ccc(N4CCN(C)CC4)cc3)nc2n1-c1cccc(C(C)(C)O)n1` + COC1C(OC(N)=O)C(O)C(Oc2ccc3c(O)c(NC(=O)c4ccc(O)c(CC=C(C)C)c4)c(=O)oc3c2C)OC1(C)C showed an IC50 (second compound 0.0316 µM) of over 1000 nM, an IC50 (second compound 0.1 µM) of over 1000 nM and an IC50 (second compound 0.316 µM) of over 1000 nM. It also gave an IC50 (second compound 1 µM) of over 1000 nM, an IC50 (second compound 3.16 µM) of over 1000 nM and an IC50 (second compound 10 µM) of over 1000 nM. It also gave a viability, T/C (second compound 0.0316 µM, first compound 0.00316 µM) of 89.1%, a viability, T/C (second compound 0.0316 µM, first compound 0.01 µM) of 99.6% and a viability, T/C (second compound 0.0316 µM, first compound 0.0316 µM) of 99.6%. It also gave a viability, T/C (second compound 0.0316 µM, first compound 0.1 µM) of 112%, a viability, T/C (second compound 0.0316 µM, first compound 0.316 µM) of 95.1% and a viability, T/C (second compound 0.0316 µM, first compound 1 µM) of 74.4%. It also gave a viability, T/C (second compound 0.1 µM, first compound 0.00316 µM) of 116%, a viability, T/C (second compound 0.1 µM, first compound 0.01 µM) of 97.7% and a viability, T/C (second compound 0.1 µM, first compound 0.0316 µM) of 127%. For the same compound, the viability, T/C (second compound 0.1 µM, first compound 0.1 µM) was 122%, the viability, T/C (second compound 0.1 µM, first compound 0.316 µM) was 87.5% and the viability, T/C (second compound 0.1 µM, first compound 1 µM) was 64.5%. It also gave a viability, T/C (second compound 0.316 µM, first compound 0.00316 µM) of 105%, a viability, T/C (second compound 0.316 µM, first compound 0.01 µM) of 99% and a viability, T/C (second compound 0.316 µM, first compound 0.0316 µM) of 101%. The viability, T/C (second compound 0.316 µM, first compound 0.1 µM) was 98.6%, the viability, T/C (second compound 0.316 µM, first compound 0.316 µM) was 115% and the viability, T/C (second compound 0.316 µM, first compound 1 µM) was 60.5%. For the same compound, the viability, T/C (second compound 1 µM, first compound 0.00316 µM) was 111%, the viability, T/C (second compound 1 µM, first compound 0.01 µM) was 96.2% and the viability, T/C (second compound 1 µM, first compound 0.0316 µM) was 96.4%. For the same compound, the viability, T/C (second compound 1 µM, first compound 0.1 µM) was 102%, the viability, T/C (second compound 1 µM, first compound 0.316 µM) was 97.9% and the viability, T/C (second compound 1 µM, first compound 1 µM) was 78.2%. For the same compound, the viability, T/C (second compound 3.16 µM, first compound 0.00316 µM) was 112%, the viability, T/C (second compound 3.16 µM, first compound 0.01 µM) was 103% and the viability, T/C (second compound 3.16 µM, first compound 0.0316 µM) was 94.9%. The viability, T/C (second compound 3.16 µM, first compound 0.1 µM) was 107%, the viability, T/C (second compound 3.16 µM, first compound 0.316 µM) was 95.3% and the viability, T/C (second compound 3.16 µM, first compound 1 µM) was 69.6%. It also gave a viability, T/C (second compound 10 µM, first compound 0.00316 µM) of 104%, a viability, T/C (second compound 10 µM, first compound 0.01 µM) of 121% and a viability, T/C (second compound 10 µM, first compound 0.0316 µM) of 115%. It also gave a viability, T/C (second compound 10 µM, first compound 0.1 µM) of 119%, a viability, T/C (second compound 10 µM, first compound 0.316 µM) of 95.2% and a viability, T/C (second compound 10 µM, first compound 1 µM) of 68.9%.
